Earlier results as cited in US20220175648A1, “TOPICAL FORMULATIONS WITH LIPID-BASED CARRIERS” (KATE ROSE LLC, priority 2020, published 2022).

Assays:
age spots = conditions: 10% solution
collagen synthesis = conditions: versus L-ascorbic acid at the same dosage
[1] = test system: UV B and reactive oxygen species; conditions: in vitro studies
[2] = after just one year

## CCCCCCCCC(CCCCCC)C(=O)OC[C@H](OC(=O)C(CCCCCC)CCCCCCCC)[C@H]1OC(=O)C(OC(=O)C(CCCCCC)CCCCCCCC)=C1OC(=O)C(CCCCCC)CCCCCCCC (stereo partly shown) [THD, Tetrahexyldecyl ascorbate]
Age spots
  presence of age spots: decreases the presence of age spots
Collagen synthesis
  increase of collagen synthesis: up to two times greater than L-ascorbic acid
[1]
  protection against UV B and reactive oxygen species: effective at protecting against UV B and reactive oxygen species

## O=C1O[C@H]([C@@H](O)CO)C(O)=C1O [L-ascorbic acid]
[2]
  break down of L-ascorbic acid: 20%
